Read-outs that look alike come from different tables or passages of the source. Blank lines part the entries; values can stand above or below the molecule they belong to.
Legend:
p52 = molecular target: T1, p52 (Homo sapiens, UniProt Q00653); experiment: DSE-FRET p52–DNA binding inhibition; type: biochemical; set-up: p52 Retest % Inhibition Run2 / p52 Retest % Inhibition Avg. / Kinetic assay p52 Inhibition % ΔRFU(60 min-0 min) / p52 HTS % Inhibition / p52 Retest % Inhibition Run1: dose or concentration left out as unconfirmed; settings: for p52 Retest % Inhibition Avg.: Retest average of Run1 and Run2
T1 sequence (Q00653 1-454 limits assumed): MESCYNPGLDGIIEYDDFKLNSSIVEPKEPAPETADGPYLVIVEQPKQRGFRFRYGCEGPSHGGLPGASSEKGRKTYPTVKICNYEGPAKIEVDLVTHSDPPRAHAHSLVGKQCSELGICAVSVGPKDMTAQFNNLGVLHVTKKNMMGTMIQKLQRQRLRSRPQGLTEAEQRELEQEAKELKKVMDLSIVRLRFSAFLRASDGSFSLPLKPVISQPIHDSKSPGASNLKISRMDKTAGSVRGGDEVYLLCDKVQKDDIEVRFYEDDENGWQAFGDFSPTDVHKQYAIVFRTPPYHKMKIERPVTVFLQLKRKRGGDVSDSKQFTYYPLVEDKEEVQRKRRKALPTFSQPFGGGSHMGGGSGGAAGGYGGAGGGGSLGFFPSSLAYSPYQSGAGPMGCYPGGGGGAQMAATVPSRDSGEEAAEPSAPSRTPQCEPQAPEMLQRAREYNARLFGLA

RelA = RelA (Homo sapiens, UniProt Q04206); experiment: DSE-FRET RelA–DNA binding inhibition; type: biochemical; set-up: Kinetic assay RelA Inhibition % ΔRFU(60 min-0 min) / RelA HTS % Inhibition / RelA Retest % Inhibition Run1 / RelA Retest % Inhibition Run2 / RelA Retest % Inhibition Avg. / Kinetic assay RelA % Inhibition ΔRFU(60 min-0 min): dose or concentration left out as unconfirmed; settings: for RelA Retest % Inhibition Avg.: Retest average of Run1 and Run2
RelA, sequence (Q04206 19-306 limits assumed): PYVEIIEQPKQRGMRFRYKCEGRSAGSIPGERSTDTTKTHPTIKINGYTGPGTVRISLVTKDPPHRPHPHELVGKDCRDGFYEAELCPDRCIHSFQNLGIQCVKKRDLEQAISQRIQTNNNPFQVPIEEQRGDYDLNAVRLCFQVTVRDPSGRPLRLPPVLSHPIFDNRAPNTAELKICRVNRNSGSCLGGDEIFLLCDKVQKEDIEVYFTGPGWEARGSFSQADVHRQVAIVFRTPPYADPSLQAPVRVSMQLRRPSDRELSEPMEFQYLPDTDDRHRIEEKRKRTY

[1] = kinetic assay, ΔRFU 60 min-0 min
[2] = HTS, 5 µg/mL, NPDepo hits, read-out: RelA HTS % Inhibition @ 5 µg/mL
[3] = Retest Run1, 5 µg/mL, read-out: RelA Retest % Inhibition @ 5 µg/mL Run1
[4] = Retest Run2, 5 µg/mL, read-out: RelA Retest % Inhibition @ 5 µg/mL Run2
[5] = Retest average of Run1 and Run2, 5 µg/mL, read-out: RelA Retest % Inhibition @ 5 µg/mL Avg.
[6] = kinetic assay, 5 µg/mL, ΔRFU 60 min-0 min, read-out: Kinetic assay @ 5 µg/mL RelA Inhibition % ΔRFU(60 min-0 min)
[7] = retest of known drugs, 1 = judged hit
[8] = HTS, known drugs, 10 µM, read-out: p52 HTS % Inhibition @ 10 µM
[9] = kinetic assay, 60 min-0 min, 10 µM, read-out: Kinetic assay @ 10 µM p52 % Inhibition ΔRFU(60 min-0 min)
[10] = retest, Run1, 10 µM, read-out: p52 Retest % Inhibition @ 10 µM Run1
[11] = retest, Run2, 10 µM, read-out: p52 Retest % Inhibition @ 10 µM Run2
[12] = retest, average of Run1 and Run2, 10 µM, read-out: p52 Retest % Inhibition @ 10 µM Avg.
[13] = HTS, known drugs, 10 µM, read-out: RelA HTS % Inhibition @ 10 µM
[14] = kinetic assay, 60 min-0 min, 10 µM, read-out: Kinetic assay @ 10 µM RelA % Inhibition ΔRFU(60 min-0 min)
[15] = retest, Run1, 10 µM, read-out: RelA Retest % Inhibition @ 10 µM Run1
[16] = retest, Run2, 10 µM, read-out: RelA Retest % Inhibition @ 10 µM Run2
[17] = retest, average of Run1 and Run2, 10 µM, read-out: RelA Retest % Inhibition @ 10 µM Avg.

Compound: O=c1c(=Cc2ccc(-c3ccccc3F)o2)sc2nc3sc4c(c3c(=O)n12)CCCC4
p52 HTS % Inhibition (p52; HTS, NPDepo hits): 20.7%
p52 Retest % Inhibition Run1 (p52): 25.8%
p52 Retest % Inhibition Run2 (p52): 30.7%
p52 Retest % Inhibition Avg. (p52): 28.2%
Kinetic assay p52 Inhibition % ΔRFU(60 min-0 min) (p52; [1]): -0.236%
RelA HTS % Inhibition (RelA; HTS, NPDepo hits): 33.6%
RelA Retest % Inhibition Run1 (RelA): 26.4%
RelA Retest % Inhibition Run2 (RelA): 32.2%
RelA Retest % Inhibition Avg. (RelA): 29.3%
Kinetic assay RelA Inhibition % ΔRFU(60 min-0 min) (RelA; [1]): 0.774%

Compound: CCN1C(=O)C(=CC=C2Oc3ccccc3N2CCC(=O)O)N(C)C1=S
p52 HTS % Inhibition (p52; HTS, NPDepo hits): 115.0%
Kinetic assay p52 Inhibition % ΔRFU(60 min-0 min) (p52; [1]): -27%
RelA HTS % Inhibition (RelA; HTS, NPDepo hits): 107.7%
Kinetic assay RelA Inhibition % ΔRFU(60 min-0 min) (RelA; [1]): -18%

Compound: O=C(O)CSCC(=O)N1CCn2c3c(c4cc(C5CCCCC5)ccc42)CCCC31 (stereo not drawn)
p52 HTS % Inhibition (p52; HTS, NPDepo hits): 19.2%
p52 Retest % Inhibition Run1 (p52): 18.8%
p52 Retest % Inhibition Run2 (p52): 22.6%
p52 Retest % Inhibition Avg. (p52): 20.7%
Kinetic assay p52 Inhibition % ΔRFU(60 min-0 min) (p52; [1]): -3.52%
RelA HTS % Inhibition (RelA; HTS, NPDepo hits): 35.7%
RelA Retest % Inhibition Run1 (RelA): 22.2%
RelA Retest % Inhibition Run2 (RelA): 23.7%
RelA Retest % Inhibition Avg. (RelA): 22.9%
Kinetic assay RelA Inhibition % ΔRFU(60 min-0 min) (RelA; [1]): -2.34%

Compound: O=C1NC(=O)c2c1c1c3ccccc3[nH]c1c1[nH]c3ccccc3c21 [Arcyriaflavin A]
Kinetic assay p52 % Inhibition ΔRFU(60 min-0 min) (p52; kinetic assay, 60 min-0 min): -3.54%
Kinetic assay RelA % Inhibition ΔRFU(60 min-0 min) (RelA; kinetic assay, 60 min-0 min): -3.51%

Compound: CC1(C)C(=O)N=C2C1=C(O)C(=O)c1ccccc12 [BVT 948]
p52 HTS % Inhibition (p52; HTS, known drugs): 38.2%
p52 Retest % Inhibition Run1 (p52): 22.0%
p52 Retest % Inhibition Run2 (p52): 33.7%
p52 Retest % Inhibition Avg. (p52): 27.8%
Kinetic assay p52 % Inhibition ΔRFU(60 min-0 min) (p52; kinetic assay, 60 min-0 min): 7%
Hit Judgement of: p52 (p52; [7]): 1
RelA HTS % Inhibition (RelA; HTS, known drugs): 34.4%
RelA Retest % Inhibition Run1 (RelA): 48.4%
RelA Retest % Inhibition Run2 (RelA): 67.6%
RelA Retest % Inhibition Avg. (RelA): 58.0%
Kinetic assay RelA % Inhibition ΔRFU(60 min-0 min) (RelA; kinetic assay, 60 min-0 min): 21%
Hit Judgement of: RelA (RelA; [7]): 1

Compound: COc1cccc2c1C(=O)c1c(O)c3c(c(O)c1C2=O)C[C@@](O)(C(C)=O)C[C@@H]3O[C@H]1C[C@H](N)[C@H](O)[C@H](C)O1 [DAUNORUBICIN]
Kinetic assay p52 % Inhibition ΔRFU(60 min-0 min) (p52; kinetic assay, 60 min-0 min): -16%

Other lines, results leading:

Hit Judgement of: p52 (p52; 1 = judged hit after retest): 1
inhibition at 5 µg/mL (p52; HTS, 5 µg/mL, NPDepo hits, read-out: p52 HTS % Inhibition @ 5 µg/mL): 4.4%
inhibition at 5 µg/mL (p52; Retest Run1, 5 µg/mL, read-out: p52 Retest % Inhibition @ 5 µg/mL Run1): 14.9%
inhibition at 5 µg/mL (p52; Retest Run2, 5 µg/mL, read-out: p52 Retest % Inhibition @ 5 µg/mL Run2): 16.2%
inhibition at 5 µg/mL (p52; Retest average of Run1 and Run2, 5 µg/mL, read-out: p52 Retest % Inhibition @ 5 µg/mL Avg.): 15.6%
inhibition at 5 µg/mL (p52; kinetic assay, 5 µg/mL, ΔRFU 60 min-0 min, read-out: Kinetic assay @ 5 µg/mL p52 Inhibition % ΔRFU(60 min-0 min)): 6%
Hit Judgement of: RelA (RelA; 1 = judged hit after retest): 1
inhibition at 5 µg/mL (RelA; [2]): 52.5%
inhibition at 5 µg/mL (RelA; [3]): 43.2%
inhibition at 5 µg/mL (RelA; [4]): 47.5%
inhibition at 5 µg/mL (RelA; [5]): 45.3%
inhibition at 5 µg/mL (RelA; [6]): 15%
Compound: O=C1C=CC(=C(c2ccc(O)c(O)c2)c2ccccc2S(=O)(=O)O)C=C1O (mixture of isomers) [Pyrocatechol violet]

inhibition at 10 µM (p52; [8]): 98%
inhibition at 10 µM (p52; [9]): 92%
Hit Judgement of: p52 (p52; [7]): 1
inhibition at 10 µM (p52; [10]): 78.9%
inhibition at 10 µM (p52; [11]): 110%
inhibition at 10 µM (p52; [12]): 94.2%
inhibition at 10 µM (RelA; [13]): 96.9%
inhibition at 10 µM (RelA; [14]): 94%
Hit Judgement of: RelA (RelA; [7]): 1
inhibition at 10 µM (RelA; [15]): 91.9%
inhibition at 10 µM (RelA; [16]): 106%
inhibition at 10 µM (RelA; [17]): 98.9%
Compound: CC(C)(O/N=C(\C(=O)N[C@@H]1C(=O)N2C(C(=O)[O-])=C(C[n+]3ccccc3)CS[C@H]12)c1csc(N)n1)C(=O)O [CEFTAZIDIME]

inhibition at 5 µg/mL (RelA; [2]): 116%
inhibition at 5 µg/mL (RelA; [3]): 135%
inhibition at 5 µg/mL (RelA; [4]): 149%
inhibition at 5 µg/mL (RelA; [5]): 142%
inhibition at 5 µg/mL (RelA; [6]): -84%
Compound: COc1cc(/C=C/C(=O)CC(=O)/C=C/c2ccc(O)c(OC)c2)ccc1O [Curcumin]

inhibition at 10 µM (p52; [8]): 241%
inhibition at 10 µM (p52; [9]): -1.23%
inhibition at 10 µM (p52; [10]): 207%
inhibition at 10 µM (p52; [11]): 231%
inhibition at 10 µM (p52; [12]): 219%
inhibition at 10 µM (RelA; [13]): 242%
inhibition at 10 µM (RelA; [14]): -4.64%
inhibition at 10 µM (RelA; [15]): 226%
inhibition at 10 µM (RelA; [16]): 246%
inhibition at 10 µM (RelA; [17]): 236%
Compound: CC(C)(CO)[C@@H](O)C(=O)NCCCO [DEXPANTHENOL]

Source: paper PMC7734590, “Identification of a Selective RelA Inhibitor Based on DSE-FRET Screening Methods” (International Journal of Molecular Sciences, 2020)
